The numbers were not newly measured in US10105372B2, “Methods of treating obesity using antioxidant inflammation modulators” (REATA PHARMACEUTICALS, INC., priority 2010, dated 2018), which cites them from elsewhere.

For the data set the following is noted: monkey, in vivo, po; cited from earlier work.

As to `COC(=O)[C@]12CCC(C)(C)C[C@H]1[C@H]1C(=O)C=C3[C@@]4(C)C=C(C#N)C(=O)C(C)(C)[C@@H]4CC[C@@]3(C)[C@]1(C)CC2` [Form B, CDDO-Me], the bioavailability entry was “higher than that of Form A”.
